In ChEMBL document CHEMBL1131389, “Unusual synthesis of new glycine antagonists via sequential aldol condensation-lactonization-elimination reaction” (Bioorg Med Chem Lett, 1998):

Target: Glutamate receptor ionotropic, NMDA 1 (Rattus norvegicus) (UniProt P35439)
Experiment: In vitro affinity of compound for the glycinergic site associated with NMDA receptor was assessed by inhibition of the binding of [3H]glycine

Row | pKi | SMILES
1 | 7.5 | O=C(O)c1[nH]c2cc(Cl)cc(Cl)c2c1/C=C1\CCN(c2ccccc2)C1=O
2 | 7.3 | O=C(O)c1[nH]c2cc(Cl)cc(Cl)c2c1/C=C1\CCCN(c2ccccc2)C1=O
